From ChEMBL document CHEMBL1275599, “Comparison of in vitro activities of fluoroquinolone-like 2,4- and 1,3-diones” (Antimicrob Agents Chemother, 2010) come the findings set out here.

Test [1] concerns Escherichia coli. Kind of test: Ratio of CC3 for Escherichia coli DNA gyrase gyrA A67S mutant to CC3 for Escherichia coli wild-type DNA gyrase.
For test [2], the target named is DNA gyrase subunit A (Escherichia coli K-12, UniProt P0AES4, G81C). Kind of test: Inhibition of DNA supercoiling activity of Escherichia coli DNA gyrase gyrA G81C mutant.
The test system of test [3] is Escherichia coli. Put plainly: Selectivity index, ratio of IC50 for Escherichia coli Topoisomerase 4 to IC50 for Escherichia coli DNA gyrase.
The subject of test [4] is Escherichia coli. Kind of test: Selectivity ratio of IC50 for Escherichia coli DNA gyrase gyrA S83W mutant to IC50 for Escherichia coli wild-type DNA gyrase.
The nature of test [5]: Inhibition of DNA decatenation activity of Escherichia coli DNA topoisomerase 4.
The target in a further test is DNA gyrase (Staphylococcus aureus, UniProt P0A0K8+P20831). Put plainly: Inhibition of DNA supercoiling activity of Staphylococcus aureus DNA gyrase. It is filed as protein-complex assay.
The next test concerns Staphylococcus aureus. Put plainly: Selectivity index, ratio of IC50 for Staphylococcus aureus Topoisomerase 4 to IC50 for Staphylococcus aureus DNA gyrase.
Test [6] has as its target DNA gyrase subunit A (Escherichia coli K-12, UniProt P0AES4, A67S). Kind of test: Inhibition of DNA supercoiling activity of Escherichia coli DNA gyrase gyrA A67S mutant.
The nature of test [7]: Inhibition of DNA decatenation activity of Staphylococcus aureus DNA topoisomerase 4.
A short description of test [8]: Inhibition of DNA supercoiling activity of Escherichia coli DNA gyrase.
For test [9], the target named is DNA gyrase subunit A (Escherichia coli K-12, UniProt P0AES4, S83W). Kind of test: Inhibition of DNA supercoiling activity of Escherichia coli DNA gyrase gyrA S83W mutant.
In test [10] the test system is Escherichia coli. Kind of test: Selectivity ratio of IC50 for Escherichia coli DNA gyrase gyrA A67S mutant to IC50 for Escherichia coli wild-type DNA gyrase.
Test [11] deals with Escherichia coli. Put plainly: Selectivity ratio of IC50 for Escherichia coli DNA gyrase gyrA G81C mutant to IC50 for Escherichia coli wild-type DNA gyrase.
Test [12] concerns Escherichia coli. Put plainly: Ratio of CC3 for Escherichia coli DNA gyrase gyrA S83W mutant to CC3 for Escherichia coli wild-type DNA gyrase.
The subject of test [13] is Escherichia coli. Kind of test: Ratio of CC3 for Escherichia coli DNA gyrase gyrA G81C mutant to CC3 for Escherichia coli wild-type DNA gyrase.
Test [14] relates to Escherichia coli. Put plainly: Antimicrobial activity against Escherichia coli. It is filed as functional.

Converted amounts (≈) assume the structure as drawn.

The term IC50 denotes the concentration needed to halve the response being measured. Read a high IC50 as a need for much substance. For orientation: MIC means the least concentration at which growth counts as inhibited.

In the case of `CC[C@@H]1CCN(c2c(F)cc3c(=O)n(N)c(=O)n(C4CC4)c3c2C)C1`, the results for the Ratio with Escherichia coli [1], with Escherichia coli [12] and with Escherichia coli [13] were 2.5, 5.6 and 3.1, respectively. Also, the IC50 against DNA gyrase subunit A [2] was 1.7 µM; in [5], 6 µM; on DNA gyrase, 1.6 µM; at DNA gyrase subunit A [6] it was 1.2 µM; in [7] it was 0.88 µM; in test [8], 0.95 µM. 3.8 µM corresponded to half-maximal inhibition on DNA gyrase subunit A [9] (IC50). In addition, the Ratio IC50 turned out to be 6.3 in the test with Escherichia coli [3]; 4 with Escherichia coli [4]; 1.8 with Staphylococcus aureus; 1.3 in the test with Escherichia coli [10]; 1.8 in the test with Escherichia coli [11].
With `CC[C@@H]1CCN(c2c(F)cc3c(=O)n(N)c(=O)n(C4CC4)c3c2OC)C1`, the Ratio came to 1.7 in the test on Escherichia coli [1], 2.1 in the test on Escherichia coli [12] and 2.3 in the test on Escherichia coli [13]. The concentration for half-maximal inhibition (IC50) came out at 4.3 µM at DNA gyrase subunit A [2]; 16 µM in test [5]; 2.3 µM against DNA gyrase; 2.4 µM against DNA gyrase subunit A [6]; 5.5 µM in test [7]; 2.8 µM in test [8]. The compound also had an IC50 at DNA gyrase subunit A [9] of 5.9 µM. For the same compound, the Ratio IC50 is 5.7 with Escherichia coli [3]; 2.1 with Escherichia coli [4]; 2.4 in the test on Staphylococcus aureus; 0.86 with Escherichia coli [10]; 1.5 in the test with Escherichia coli [11]. The lowest concentration to inhibit growth with Escherichia coli [14] (MIC) was 2.5 µg/mL (≈ 6.9 µM).
As for `CC[C@@H]1CCN(c2c(F)cc3c(=O)c(C(=O)O)cn(C4CC4)c3c2OC)C1`, the Ratio in the test with Escherichia coli [1] came out at 1.5; with Escherichia coli [12] it was 6.5; with Escherichia coli [13], 13. The IC50 stood at 1.2 µM at DNA gyrase subunit A [2]; 1.7 µM in test [5]; 1.1 µM against DNA gyrase; 0.12 µM against DNA gyrase subunit A [6]; 0.5 µM in test [7]; 0.16 µM in test [8]. For the same compound, at DNA gyrase subunit A [9], half-maximal inhibition (IC50) required 1.4 µM. Moreover, the Ratio IC50 came out at 10.6 in the test on Escherichia coli [3]; 8.8 with Escherichia coli [4]; 2.2 in the test with Staphylococcus aureus; 0.75 in the test on Escherichia coli [10]; 7.5 in the test on Escherichia coli [11]. Also, the MIC against Escherichia coli [14] turned out to be 0.004 µg/mL (≈ 0.0107 µM).
Take `O=C(O)c1cn(C2CC2)c2cc(N3CCNCC3)c(F)cc2c1=O` [CIPROFLOXACIN]: the values for the IC50 in test [5], in [7] and in test [8] were 15.9 µM, 8.8 µM and 0.45 µM, respectively.
As to `CC[C@@H]1CCN(c2c(F)cn3c(=O)n(N)c(=O)c(C4CC4)c3c2OC)C1`, the Ratio with Escherichia coli [1] came out at 1.5; in the test on Escherichia coli [12], 3.4; in the test on Escherichia coli [13], 2.3. Also, the IC50 against DNA gyrase subunit A [2] was 31 µM; in test [5] it was 163 µM; at DNA gyrase it was 36.5 µM; against DNA gyrase subunit A [6], 19 µM; in [7], 48 µM; in test [8], 11 µM. On DNA gyrase subunit A [9], the IC50 worked out at 67 µM. In addition, the Ratio IC50 was found to be 14.8 with Escherichia coli [3]; 6.1 in the test with Escherichia coli [4]; 1.3 in the test with Staphylococcus aureus; 1.7 in the test with Escherichia coli [10]; 2.8 in the test on Escherichia coli [11].
